Experimental data from patent publication US20250320471A1, “Method for Producing Compounds, Method for Producing Compound Library, Compound Library, and Screening Method” (The University of Tokyo, priority 2021, published 2025).
Several values for one entry are separate records, joined by “and”; a condition that tells them apart may be missing. Equal entries are not always repeated. Peptide text beside a SMILES is read from it.

Experiments:
[1] = system: LimF; experiment: LimF prenylation of His monomers and His-containing dipeptides; format: biochemical, Limnothrix sp. CACIAM 69d; conditions: prenyl group donor GPP; 100 μM LimF, 20 hours
Experimental: The optimization conditions were as follows: 1 mM GPP, 40 mM MgCl2, 1 mM dithiothreitol (DTT), pH 7.2, and reaction temperature 25° C. The reaction conditions described above were used below except where otherwise stated.
• A reaction was performed for 20 hours with 100 μM LimF.
Furthermore, when a prenylation reaction facilitated by 20 μM LimF was applied not only to Ac-AH-NH2, but also to various His-containing dipeptides, it became clear that a His prenylation reaction facilitated by LimF progressed for various His-containing dipeptides (FIG. 6).

[2] = molecular target: T1, GLP1R (Homo sapiens, UniProt P43220); experiment: cAMP production activation test (cAMP Hunter eXpress GLP1R CHO-K1 GPCR assay kit); format: cell-based; conditions: GLP1R CHO-K1 cells
T1 construct: host or cells: CHO-K1
Experimental: The concentration range of the used peptides was from 0.33 μM to 20 nM.

[3] = system: Vib-PT; conditions: Aromatic C5 O-prenylation; cited from earlier work
[4] = system: LimF; experiment: Initial evaluation of LimF with estimated substrates bcLimE1-3 (LC-MS); format: biochemical, Limnothrix sp. CACIAM 69d; conditions: for geranylation by LimF (LC-MS): 20 μM LimF, 20 μM peptide, 2 mM geranyl pyrophosphate, 20 mM MgCl2, pH 7.5, 37° C., 12 hours
Experimental: In order to examine the enzymatic activity of LimF, LimF was heterologously-expressed in Escherichia coli using the method described above and incubated with chemically synthesized bcLimE1, bcLimE2 or bcLimE3 in the presence of MgCl2 and a prenyl group donor (geranyl pyrophosphate (GPP)). The reaction conditions were as described below.
First, the same experiment as described above was performed using farnesyl pyrophosphate instead of geranyl pyrophosphate as a prenyl group donor. As a result, a trace amount of farnesylated bcLimE2 was generated, although at a lower efficiency than when GPP was used.
The initial evaluation of LimF using estimated substrates (bcLimE1, bcLimE2, and bcLimE3) was performed as follows. An enzymatic reaction was performed for 12 hours at 37° C. under the conditions of LimF (20 μM), peptide substrate (20 μM), prenyl group donor (geranyl pyrophosphate or farnesyl pyrophosphate) (2 mM), HEPES (50 mM, pH 7.5), MgCl2 (20 mM), and DTT (1 mM). After reacting the substrates bcLimE1, bcLimE2, and bcLimE3 for 12 hours at 37° C., respectively, nine times the amount of 1% TFA was added and centrifuged at 4° C. (15300×g, 10 minutes), and a supernatant was recovered. 10 μL of the obtained supernatant was subjected to LC-MS analysis.

[5] = system: AcyF; conditions: Trp C5 N-prenylation; cited from earlier work
[6] = system: LimF; experiment: FIT-LimF system: one-pot in vitro expression and prenylation of teMPs; format: biochemical, Limnothrix sp. CACIAM 69d; conditions: 16 hours; for Modification Efficiency % (Tyr prenylation): FIT-LimF system, 20 μM LimF
Text: First, teMP (teLimE2) mimicking the sequence of bcLimE2 was designed and expressed by genetic code reprogramming using customized cell-free translation, and the so-called flexible in vitro translation (FIT) system (Goto, Y, Katoh, T. & Suga, Flexizymes for genetic code reprogramming. Nat. Protoc., 6, 779-790 (2011)). Specifically, the AUG start codon was reprogrammed with N-chloroacetyl-D-phenylalanine (^ClAcD-F), a linear precursor having a chloroacetyl group (ClAc group) at the N-terminal was expressed, and a thioether bond was formed by a spontaneous ring-closing SN2 reaction with a downstream Cys thiol (FIG. 7a). Note that the FIT system had the composition described below.
teLimE2 expressed in vitro was incubated for 16 hours at 25° C. in the presence of 100 μM LimF and analyzed by LC-MS. […] The in vitro translation system conjugated with LimF will be referred to hereinafter as the FIT-LimF system.
38 types of teLimE2 variants in which the His-1 and His+1 positions were substituted with 19 types of proteinogenic amino acid other than Cys were designed and then expressed and modified in the FIT-LimF system. The reaction results were analyzed by LC-MS. In the present experiment, the prenylation process was performed under intentionally poor modification efficiency conditions by using a low LimF concentration (10 μM). This allowed for more accurate investigation of the influence of His−1 and His+1 amino acids.
The following series of experiments examined whether teMPs of various ring sizes were tolerated by LimF. Thirteen teMP variants with different ring sizes (4 to 18 residues) and a preferred local sequence motif (Ser-His-Ala/Cys) were designed.
Next, it was shown that LimF can modify teMPs having a variety of random sequences. Five teMPs composed of random sequences were expressed and modified using the FIT-LimF system (LimF concentration: 10 μM) (FIG. 7e). […]
Target sequence in this assay (as listed by the source): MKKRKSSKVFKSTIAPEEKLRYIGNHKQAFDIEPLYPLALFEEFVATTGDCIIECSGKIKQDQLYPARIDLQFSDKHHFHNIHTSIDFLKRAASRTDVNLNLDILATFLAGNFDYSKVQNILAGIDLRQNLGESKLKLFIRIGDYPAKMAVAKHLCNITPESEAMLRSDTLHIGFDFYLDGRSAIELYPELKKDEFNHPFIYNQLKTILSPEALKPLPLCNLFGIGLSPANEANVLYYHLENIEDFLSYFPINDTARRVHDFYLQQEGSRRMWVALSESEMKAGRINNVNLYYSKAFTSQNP

[7] = molecular target: T2, FtmPT2 (Aspergillus fumigatus, UniProt Q4WAX1); conditions: Aromatic C5 N-prenylation; cited from earlier work
T2 sequence (Q4WAX1 1-427): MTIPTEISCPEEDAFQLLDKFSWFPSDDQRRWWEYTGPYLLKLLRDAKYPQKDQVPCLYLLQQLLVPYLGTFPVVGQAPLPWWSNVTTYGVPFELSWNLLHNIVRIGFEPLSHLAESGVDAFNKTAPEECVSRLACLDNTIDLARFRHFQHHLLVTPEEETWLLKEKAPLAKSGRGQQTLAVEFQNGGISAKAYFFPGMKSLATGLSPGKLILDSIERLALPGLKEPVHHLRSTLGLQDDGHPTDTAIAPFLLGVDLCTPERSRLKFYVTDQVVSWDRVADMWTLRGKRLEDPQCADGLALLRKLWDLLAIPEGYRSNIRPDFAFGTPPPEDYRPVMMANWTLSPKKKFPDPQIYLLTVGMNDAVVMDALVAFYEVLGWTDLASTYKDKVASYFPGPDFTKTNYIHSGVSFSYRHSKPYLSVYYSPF

[8] = system: LynF; conditions: Tyr C5 O-prenylation; cited from earlier work
[9] = system: PagF; conditions: Tyr C5 O-prenylation; cited from earlier work
[10] = system: LimF; experiment: Steady-state kinetics of prenylation facilitated by LimF (wild type); format: biochemical, Limnothrix sp. CACIAM 69d; conditions: His-prenylation (C10), 1 mM GPP, 40 mM MgCl2, pH 7.2, 25° C.
Experimental: Under optimal conditions, the steady-state kinetic parameters of the prenylation reaction of bcLimE2 facilitated by LimF were measured by the methods described below.
The concentration dependence of GPP and MgCl2 in bcLimE2 prenylation reactions facilitated by LimF was measured in reaction systems containing 1 μM LimF, 1 mM or a suitably modified concentration of GPP, 50 mM HEPES pH 7.2, 0.4 mM substrate, 1 mM DTT, and 40 mM or a suitably modified concentration of MgCl2. A reaction solution containing components other than GPP was prepared and preheated to 25° C., and the reaction was then started by adding GPP. After incubating at 25° C., the reaction was stopped at each point and analyzed by LC-MS. Next, the initial rate was calculated as the slope of increase in the amount of prenylation product produced in the linear region. Three separate reactions were carried out under each condition and the mean and standard deviation of the results were used for the analysis.
For GPP concentration dependence and peptide substrate concentration dependence, the kinetic parameters were estimated by fitting the initial rate and GPP substrate concentration or peptide substrate concentration to the Michaelis-Menten model in Graphpad Prism 8.4.2 (GraphPad Prism Software Inc., San Diego, California) software.
Kinetic parameters of the His-prenylation reaction facilitated by LimF were determined based on reactions under optimal conditions using substrates of different concentrations. For the Tyr-prenylation described below, the kinetic parameters were measured under the same conditions except that LimF was set to 5 μM and the reaction temperature was set to 16° C. In order to estimate the kinetic parameters, the initial rate and substrate concentration were fitted to the Michaelis-Menten model in Graphpad Prism 8.4.2 software.
In order to further evaluate the two different prenylation modes by LimF, two teMPs (teR6-H5A/Y7H and teR6-H5A) that undergo efficient His-prenylation and Tyr-prenylation, respectively, were designed and chemically synthesized. Kinetic analysis was carried out according to the above method using these peptides.

T1 sequence (P43220 24-463): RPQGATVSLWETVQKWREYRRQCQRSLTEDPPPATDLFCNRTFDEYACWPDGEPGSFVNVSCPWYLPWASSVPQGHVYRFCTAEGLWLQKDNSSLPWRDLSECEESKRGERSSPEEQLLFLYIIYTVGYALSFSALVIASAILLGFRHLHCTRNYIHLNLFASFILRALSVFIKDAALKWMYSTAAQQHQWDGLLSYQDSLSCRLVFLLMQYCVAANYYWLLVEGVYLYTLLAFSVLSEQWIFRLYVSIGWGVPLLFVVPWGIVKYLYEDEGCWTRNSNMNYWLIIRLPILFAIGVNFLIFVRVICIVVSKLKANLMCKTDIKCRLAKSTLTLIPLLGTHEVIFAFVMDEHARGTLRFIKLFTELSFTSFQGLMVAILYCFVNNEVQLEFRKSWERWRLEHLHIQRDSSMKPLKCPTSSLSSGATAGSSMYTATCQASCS

Ac-AH-NH2 [Ac—AH—NH2]
Modification Efficiency % [1]: >99%

N[C@@H](Cc1c[nH]cn1)C(=O)O [Free His, H-His-OH]
Modification Efficiency % [1]: 34.9 ± 0.7%

FAEGTFTSDVSSYLEGGAAKEFIAWLVHGR [GLP-1_H7F/K34H]
cAMP production activation ability [2]: activity comparable to that of natural GLP-1

OCc1ccc(O)cc1 [4-hydroxy-benzenemethanol]
Kcat [3]: 0.000783 s⁻¹ | Km [3]: 2050 µM

CCC(C)C1NC(=O)C(CC(N)=O)NC(=O)C(C(C)O)NC(=O)C(C(C)CC)NC(=O)C2CCCN2C(=O)C(CC(=O)O)NC(=O)C(Cc2ccc(O)cc2)NC(=O)C(Cc2ccccc2)NC1=O (centres unmarked) [bcLimE3] (cyclo(DPITNIFY); configuration not given here)
geranylation by LimF (LC-MS) [4]: not subjected to geranylation

cyclo[TSQIWGSPVP] (head-to-tail cyclized)
Kcat [5]: 0.158 s⁻¹ | Km [5]: 3320 µM

DHis
prenylation by LimF in FIT-LimF system ([6]; 100 μM LimF, 25° C., LC-MS): favorable substrates

tecyclo [y I T N I A Y D P C] (ITNIAYDPC; not fully specified; cyclized with D-Tyr)
Modification Efficiency % (Tyr prenylation) [6]: 1%

tecyclo [y I T N I T Y D P C] (ITNITYDPC; not fully specified; cyclized with D-Tyr)
Modification Efficiency % (Tyr prenylation) [6]: 21%

COc1ccc2c3c([nH]c2c1)[C@H](C=C(C)C)N1C(=O)[C@@H]2CCCN2C(=O)[C@]1(O)[C@H]3O [12,13-dihydroxyfumitremorgin C]
Kcat [7]: 0.03 s⁻¹ | Km [7]: 96 µM

cyclo[APMPPYP] (head-to-tail cyclized)
Kcat [8]: 0.00367 s⁻¹ | Km [8]: 4200 µM

cyclo[INPYLYP] (head-to-tail cyclized)
Kcat [9]: 0.123 s⁻¹ | Km [9]: 0.22 µM

CCC(C)C1NC(=O)C(CCC(=O)O)NC(=O)C(CCC(=O)O)NC(=O)C(Cc2c[nH]cn2)NC(=O)C2CCCN2C(=O)C(Cc2ccc(O)cc2)NC(=O)C(CCCNC(=N)N)NC(=O)C2CCCN2C1=O (centres unmarked) [bcLimE2] (cyclo(EEIPRYPH); configuration not given here)
geranylation by LimF (LC-MS) [4]: quantitatively converted | farnesylation by LimF ([4]; farnesyl pyrophosphate instead of GPP as prenyl group donor, otherwise as geranylation test): trace amount | Kcat [10]: 0.23 ± 0.01 s⁻¹ | Km [10]: 313 µM and 310 µM | Kcat ([10]; listed as cyclo[RYPHEEIP]): 0.23 s⁻¹

O=C(N[C@@H](Cc1cnc[nH]1)C(=O)O)OCC1c2ccccc2-c2ccccc21 [Fmoc-His, Fmoc-His-OH]
Modification Efficiency % [1]: 15.2 ± 0.8%
